This passage reports IC50 results from US8710038B2, “Pyrazole kinase modulators and methods of use” (Exelixis, Inc., priority 2004, dated 2014).

Where only a bound is given, the exact number is not on record here.

The target in one experiment is T1, flt-3 (Homo sapiens, UniProt P36888).
T1 construct: baculovirus expressed human Flt-3 kinase domain R571-S993
T1 sequence (P36888 571-993): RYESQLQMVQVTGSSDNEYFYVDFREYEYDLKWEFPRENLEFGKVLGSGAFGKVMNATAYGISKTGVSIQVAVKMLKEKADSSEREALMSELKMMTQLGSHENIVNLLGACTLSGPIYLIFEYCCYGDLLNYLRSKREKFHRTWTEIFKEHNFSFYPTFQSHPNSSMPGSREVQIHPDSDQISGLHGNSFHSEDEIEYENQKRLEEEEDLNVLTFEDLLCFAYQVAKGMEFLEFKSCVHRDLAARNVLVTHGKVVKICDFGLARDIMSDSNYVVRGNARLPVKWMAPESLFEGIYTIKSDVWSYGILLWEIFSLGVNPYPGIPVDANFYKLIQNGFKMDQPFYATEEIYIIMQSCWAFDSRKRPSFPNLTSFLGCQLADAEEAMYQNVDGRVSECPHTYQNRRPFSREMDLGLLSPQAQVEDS
In words: flt-3 Luciferase-Coupled Chemiluminescent Kinase assay (LCCA). In kind it is biochemical. How it is done: (§1) In the LCCA assays, kinase activity is measured as the percent ATP consumed following the kinase reaction using luciferase-luciferin-coupled chemiluminescence. Greiner 384-well white, clear bottom, medium-binding plates are used for LCCA. Briefly, the kinase reaction is initiated by mixing compounds, ATP and kinase in a 20 uL volume. The mixture is incubated at ambient temperature for 2-4 hrs. At the end of the kinase reaction, a 20 uL luciferase-luciferin mix is added and the chemiluminescent signal is read using a Wallac Victor^2 reader. The luciferase-luciferin mix consists of 50 mM HEPES, pH 7.8, 8.5 ug/mL oxalic acid (pH 7.8), 5 (or 50) mM DTT, 0.4% Triton X-100, 0.25 mg/mL coenzyme A, 63 uM AMP, 28 ug/mL luciferin and 40,000 units of light/mL luciferase. For the LCCA assays, total ATP consumption has been standardized to 25-45% and the IC50 values correlates well with those determined by radiometric assays.
Flt-3 biochemical activity was assessed using a Luciferase-Coupled Chemiluminescent Kinase assay (LCCA) format. Kinase activity was measured as the percent ATP remaining following the kinase reaction. Remaining ATP was detected by luciferase-luciferin-coupled chemiluminescence. Specifically, the reaction was initiated by mixing test compounds, 5 μM ATP, 3 μM poly-EY and 5 nM Flt-3 (baculovirus expressed human Flt-3 kinase domain R571-S993) in a 20 uL assay buffer (20 mM Tris-HCL pH7.5, 10 mM MgCl2, 0.01% Triton X-100, 1 mM DTT, 2 mM MnCl2). The mixture is incubated at ambient temperature for 3 hours after which 20 uL luciferase-luciferin mix is added and the chemiluminescent signal read using a Wallac Victor^2 reader. The luciferase-luciferin mix consists of 50 mM HEPES, pH 7.8, 8.5 ug/mL oxalic acid (pH 7.8), 5 (or 50) mM DTT, 0.4% Triton X-100, 0.25 mg/mL coenzyme A, 63 uM AMP, 28 ug/mL luciferin and 40,000 units of light/mL luciferase.

In the next experiment the target is T2, EphB4 (Homo sapiens, UniProt P54760).
T2 sequence (P54760 16-987): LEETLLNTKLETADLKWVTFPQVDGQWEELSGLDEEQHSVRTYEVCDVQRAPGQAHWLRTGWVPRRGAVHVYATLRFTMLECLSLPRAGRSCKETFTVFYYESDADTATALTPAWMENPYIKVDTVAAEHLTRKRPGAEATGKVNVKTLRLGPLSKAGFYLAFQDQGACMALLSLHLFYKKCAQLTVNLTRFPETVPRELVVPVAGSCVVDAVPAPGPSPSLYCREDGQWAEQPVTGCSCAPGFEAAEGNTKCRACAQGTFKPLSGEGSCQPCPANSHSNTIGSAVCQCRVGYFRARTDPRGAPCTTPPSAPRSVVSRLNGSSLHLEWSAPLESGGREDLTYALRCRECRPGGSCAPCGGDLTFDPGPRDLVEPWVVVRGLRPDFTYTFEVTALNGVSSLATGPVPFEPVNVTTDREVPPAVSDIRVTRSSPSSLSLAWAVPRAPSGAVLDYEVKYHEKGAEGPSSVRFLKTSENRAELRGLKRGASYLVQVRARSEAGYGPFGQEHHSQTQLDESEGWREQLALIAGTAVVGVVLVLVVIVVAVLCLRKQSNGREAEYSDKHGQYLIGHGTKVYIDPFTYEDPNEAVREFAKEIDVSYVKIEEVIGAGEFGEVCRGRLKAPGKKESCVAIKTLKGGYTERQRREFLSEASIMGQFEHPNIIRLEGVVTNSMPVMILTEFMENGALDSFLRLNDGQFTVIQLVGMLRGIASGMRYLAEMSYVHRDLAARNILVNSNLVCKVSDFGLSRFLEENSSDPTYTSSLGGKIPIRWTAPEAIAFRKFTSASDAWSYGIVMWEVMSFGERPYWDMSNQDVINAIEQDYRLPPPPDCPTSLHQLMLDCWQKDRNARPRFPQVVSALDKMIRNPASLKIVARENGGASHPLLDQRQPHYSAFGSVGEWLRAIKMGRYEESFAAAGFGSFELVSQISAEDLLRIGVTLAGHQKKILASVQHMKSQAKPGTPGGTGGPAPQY
In words: EphB4 kinase inhibition assay. It counts as biochemical. How it is done:
(§2) Kinase activity and compound inhibition are investigated using one or more of the three assay formats described below. The ATP concentrations for each assay are selected to be close to the Michaelis-Menten constant (KM) for each individual kinase. Dose-response experiments are performed at 10 different inhibitor concentrations in a 384-well plate format. The data are fitted to four-parameter equation (2) below; where Y is the observed signal, X is the inhibitor concentration, Min is the background signal in the absence of enzyme (0% enzyme activity), Max is the signal in the absence of inhibitor (100% enzyme activity), IC50 is the inhibitor concentration at 50% enzyme inhibition and H represents the empirical Hill's slope to measure the cooperativity. Typically H is close to unity. Y=Min+(Max−Min)/(1+(X/IC50)^H) Equation (2) ^33P Phosphoryl Transfer Assay: […]
(§3) Greiner 384-well white, clear bottom, high binding plates are coated with 2 μg/well of protein or peptide substrate in a 50 μL volume overnight at ambient temperature. The coating buffer typically contains 40 μg/mL substrate, 22.5 mM Na2CO3, 27.5 mM NaHCO3, 150 mM NaCl and 3 mM NaN3. The coating solution is aspirated and the plates are washed once with 50 μL of assay buffer and padded dry. Subsequently compounds and enzymes are mixed with γ^33P-ATP (3.3 μCi/nmol) in a total volume of 20 uL in suitable assay buffers. The mixture is incubated at ambient temperature for 1.5-2.5 hrs and terminated by aspiration using a Molecular Devices EMBLA 96-head plate washer. The plates are subsequently washed 6-12 times with PBST or TBS buffer. Scintillation fluid (50 μl/well) is then added, the plates are sealed and activity assessed by liquid scintillation spectrometry using a Perkin Elmer MicroBeta TriLux.
as §1
(§4) AlphaScreen technology is a proximity assay which utilizes the increase in fluorescent signal occurring when donor and acceptor beads are close in proximity. Biotinylated poly(Glu,Tyr) 4:1 is used as the kinase substrate, in conjunction with streptavidin-coated donor beads and anti-phosphortyrosine antibody PY100-coated acceptor beads. Upon phosphorylation, the peptide substrate can bind to both donor and acceptor beads giving rise to an increase in fluorescence. Compounds, ATP, biotinylated poly(Glu, Tyr) and kinases are mixed in a volume of 20 uL for 1 hr at ambient temperature using Greiner 384-well white clear bottom medium binding plates. Following incubation a 10 uL solution containing […] AlphaScreen beads, 75 mM Hepes, pH 7.4, 300 mM NaCl, 120 mM EDTA, 0.3% BSA and 0.03% Tween-20 is added to each well. After 2-16 hr incubation of the beads, plates are read in a Perkin Elmer AlphaQuest reader. The IC50 values correlates well with those of radiometric assays.

For the next experiment, the target named is c-Kit (Homo sapiens, UniProt P10721). Put plainly: c-Kit biochemical assay (AlphaScreen).
Description: as §4
c-Kit biochemical activity was assessed using AlphaScreen™ (Perkin Elmer) technology, described above. Test compounds, ATP, biotinylated poly(Glu, Tyr) and c-Kit kinase were combined in a volume of 20 μL in a 384-well white, medium binding microtiter plate (Greiner). Reaction mixtures were incubated for 1 hr at ambient temperature. Reactions were quenched by addition of 10 uL of […] AlphaScreen bead suspension containing 75 mM Hepes, pH 7.4, 300 mM NaCl, 120 mM EDTA, 0.3% BSA and 0.03% Tween-20. After 16 hr incubation at ambient temperature plates were read using an AlphaQuest reader (Perkin Elmer).

A further experiment concerns the target EGFR (Homo sapiens, UniProt P00533). In words: EGFR kinase inhibition assay. It counts as biochemical. How it is done:
as §2, §3, §1, §4

Chain of c-Kit (P10721 26-976): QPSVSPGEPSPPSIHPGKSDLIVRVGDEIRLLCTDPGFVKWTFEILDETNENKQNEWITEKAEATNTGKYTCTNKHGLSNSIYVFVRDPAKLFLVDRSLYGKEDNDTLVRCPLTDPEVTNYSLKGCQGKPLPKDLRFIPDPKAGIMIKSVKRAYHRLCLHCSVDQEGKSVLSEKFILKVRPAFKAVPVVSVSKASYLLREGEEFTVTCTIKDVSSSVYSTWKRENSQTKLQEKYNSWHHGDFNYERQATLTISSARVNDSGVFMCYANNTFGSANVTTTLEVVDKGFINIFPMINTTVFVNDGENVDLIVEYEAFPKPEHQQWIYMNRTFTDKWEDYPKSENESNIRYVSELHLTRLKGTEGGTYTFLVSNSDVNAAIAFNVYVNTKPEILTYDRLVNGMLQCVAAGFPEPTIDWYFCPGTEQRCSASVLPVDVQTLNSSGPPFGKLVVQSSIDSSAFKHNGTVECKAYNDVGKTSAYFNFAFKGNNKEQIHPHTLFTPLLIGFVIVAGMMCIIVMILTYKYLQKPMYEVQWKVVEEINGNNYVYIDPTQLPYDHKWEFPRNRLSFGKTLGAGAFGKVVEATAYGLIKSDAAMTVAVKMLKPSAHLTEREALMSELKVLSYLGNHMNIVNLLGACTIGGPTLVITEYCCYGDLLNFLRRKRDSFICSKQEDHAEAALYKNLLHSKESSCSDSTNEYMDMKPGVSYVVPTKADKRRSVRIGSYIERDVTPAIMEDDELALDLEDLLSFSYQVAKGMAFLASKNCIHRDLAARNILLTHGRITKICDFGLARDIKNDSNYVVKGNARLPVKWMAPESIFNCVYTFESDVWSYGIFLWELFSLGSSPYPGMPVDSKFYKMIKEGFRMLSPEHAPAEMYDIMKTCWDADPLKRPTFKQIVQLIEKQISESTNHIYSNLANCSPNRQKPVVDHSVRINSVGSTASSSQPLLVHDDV
Chain of EGFR (P00533 25-1210, species assumed): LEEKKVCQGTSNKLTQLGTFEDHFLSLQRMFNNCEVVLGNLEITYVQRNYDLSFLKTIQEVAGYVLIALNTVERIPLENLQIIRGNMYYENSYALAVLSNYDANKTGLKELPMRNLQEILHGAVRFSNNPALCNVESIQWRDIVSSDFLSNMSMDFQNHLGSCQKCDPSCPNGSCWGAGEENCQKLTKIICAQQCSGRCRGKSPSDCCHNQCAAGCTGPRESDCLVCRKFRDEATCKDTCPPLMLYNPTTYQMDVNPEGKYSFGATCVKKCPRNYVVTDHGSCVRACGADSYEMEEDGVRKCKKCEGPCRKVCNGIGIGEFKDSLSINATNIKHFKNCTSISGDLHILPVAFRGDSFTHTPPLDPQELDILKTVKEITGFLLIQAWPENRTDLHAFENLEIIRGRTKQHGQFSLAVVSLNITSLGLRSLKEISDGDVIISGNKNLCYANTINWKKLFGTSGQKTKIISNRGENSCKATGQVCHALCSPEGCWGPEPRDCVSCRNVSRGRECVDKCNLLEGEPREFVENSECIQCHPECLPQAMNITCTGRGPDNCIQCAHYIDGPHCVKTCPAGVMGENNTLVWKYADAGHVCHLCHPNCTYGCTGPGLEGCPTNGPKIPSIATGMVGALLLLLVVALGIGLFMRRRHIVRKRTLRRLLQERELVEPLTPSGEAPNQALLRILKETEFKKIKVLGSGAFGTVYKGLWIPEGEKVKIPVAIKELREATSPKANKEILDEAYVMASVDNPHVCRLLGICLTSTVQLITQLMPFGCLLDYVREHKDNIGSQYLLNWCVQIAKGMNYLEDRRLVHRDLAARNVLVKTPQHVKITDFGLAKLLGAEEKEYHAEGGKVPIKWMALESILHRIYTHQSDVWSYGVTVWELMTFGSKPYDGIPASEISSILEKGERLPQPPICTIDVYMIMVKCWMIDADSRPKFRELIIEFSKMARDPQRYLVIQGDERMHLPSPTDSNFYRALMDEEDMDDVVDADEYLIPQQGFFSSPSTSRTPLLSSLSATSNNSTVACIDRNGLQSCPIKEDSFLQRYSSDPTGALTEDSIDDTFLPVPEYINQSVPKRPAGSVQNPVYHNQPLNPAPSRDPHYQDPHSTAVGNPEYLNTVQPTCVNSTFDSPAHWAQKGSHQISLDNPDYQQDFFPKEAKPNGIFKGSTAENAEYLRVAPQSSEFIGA

As for `CN1CCN(c2ccc3[nH]c(-c4cc(-c5ccc(NC(=O)Nc6cccc(Cl)c6)cc5)[nH]n4)nc3c2)CC1` [Entry 10, N-(3-chlorophenyl)-N′-(4-{3-[5-(4-methylpiperazin-1-yl)-1H-benzimidazol-2-yl]-1H-pyrazol-yl}phenyl)urea], the IC50 on flt-3 was < 50 nM; on EphB4 it was > 5000 nM; against c-Kit, < 50 nM.
As to `O=C(Nc1ccccc1)Nc1ccc(-c2cc(-c3nc4ccccc4[nH]3)n[nH]2)cc1` [Entry 33, N-{4-[3-(1H-benzimidazol-2-yl)-1H-pyrazol-5-yl]phenyl}-N′-phenylurea], the IC50 on EGFR is > 5000 nM; against EphB4 it was > 5000 nM; against c-Kit, < 50 nM.
As for `CCN1CCN(c2ccc3[nH]c(-c4cc(-c5ccc(NC(=O)NC(C)(C)C)cc5)[nH]n4)nc3c2)CC1` [Entry 64, N-(1,1-dimethylethyl)-N′-(4-{3-[5-(4-ethylpiperazin-1-yl)-1H-benzimidazol-2-yl]-1H-pyrazol-5-yl}phenyl)urea], the IC50 against flt-3 and against c-Kit was 500 to 5000 nM throughout.
In the case of `Oc1ccc(/C=C/c2cc(-c3ccncc3)n[nH]2)cc1` [Entry 65, 4-[(E)-2-(3-pyridin-4-yl-1H-pyrazol-5-yl)ethenyl]phenol], the values for the IC50 against flt-3 and against c-Kit were 50 to 500 nM and 500 to 5000 nM, respectively.
The like results for `Oc1ccc(/C=C/c2cc(-c3cccc(Cl)c3)n[nH]2)cc1` [Entry 66, 4-{(E)-2-[3-(3-chlorophenyl)-1H-pyrazol-5-yl]ethenyl}phenol] were, in that order, 500 to 5000 nM and 500 to 5000 nM.
The like results for `COc1ccccc1-c1cc(/C=C/c2ccc(O)cc2)n[nH]1` [Entry 67, 4-((E)-2-{5-[2-(methyloxy)phenyl]-1H-pyrazol-3-yl}ethenyl)phenol] were, in that order, 500 to 5000 nM and 500 to 5000 nM.
For `Oc1ccc(/C=C/c2cc(-c3ccccc3Cl)n[nH]2)cc1` [Entry 68, 4-{(E)-2-[3-(2-chlorophenyl)-1H-pyrazol-5-yl]ethenyl}phenol], in that order: 50 to 500 nM and 500 to 5000 nM.
For `Oc1ccc(/C=C/c2cc(-c3cccnc3)n[nH]2)cc1` [Entry 69, 4-[(E)-2-(3-pyridin-3-yl-1H-pyrazol-5-yl)ethenyl]phenol], the values for the IC50 at flt-3 and against c-Kit were 50 to 500 nM and 500 to 5000 nM, respectively.
The like results for `COc1cccc(-c2cc(/C=C/c3ccc(O)cc3)n[nH]2)c1` [Entry 70, 4-((E)-2-{5-[3-(methyloxy)phenyl]-1H-pyrazol-3-yl}ethenyl)phenol] were, in that order, 500 to 5000 nM and 500 to 5000 nM.
The like results for `CC(C)(C)OC(=O)Nc1ccc(-c2cc(/C=C/c3ccccc3)n[nH]2)cc1` [Entry 71, 1,1-dimethylethyl(4-{3-[(E)-2-phenylethenyl]-1H-pyrazol-5-yl}phenyl)carbamate] were, in that order, 500 to 5000 nM and 500 to 5000 nM.
For `Oc1ccc(/C=C/c2cc(-c3ccc(Cl)c(Cl)c3)n[nH]2)cc1` [Entry 72, 4-{(E)-2-[3-(3,4-dichlorophenyl)-1H-pyrazol-5-yl]ethenyl}phenol], in that order: 500 to 5000 nM and 500 to 5000 nM.
In the case of `Oc1ccc2cc(-c3cc(/C=C/c4ccccc4)[nH]n3)oc2c1` [Entry 73, 2-{5-[(E)-2-phenylethenyl]-1H-pyrazol-3-yl}-1-benzofuran-6-ol], the IC50 was < 50 nM on flt-3 and 500 to 5000 nM against c-Kit.
For `Oc1ccc(/C=C/c2cc(-c3cccc(F)c3)[nH]n2)cc1` [Entry 74, 4-{(E)-2-[5-(3-fluorophenyl)-1H-pyrazol-3-yl]ethenyl}phenol], in that order: 50 to 500 nM and 500 to 5000 nM.
The like results for `c1ccc(-c2cc(-c3nc4ccccc4[nH]3)n[nH]2)cc1` [Entry 75, 2-(5-phenyl-1H-pyrazol-3-yl)-1H-benzimidazole] were, in that order, 500 to 5000 nM and 500 to 5000 nM.
The like results for `Nc1ccc(-c2cc(-c3nc4ccccc4[nH]3)n[nH]2)cc1` [Entry 77, 4-[3-(1H-benzimidazol-2-yl)-1H-pyrazol-5-yl]aniline] were, in that order, 500 to 5000 nM and 500 to 5000 nM.
Turning to `Oc1ccc(/C=C/c2cc(-c3cccc(-c4ccccc4)c3)[nH]n2)cc1` [Entry 78, 4-[(E)-2-(5-biphenyl-3-yl-1H-pyrazol-3-yl)ethenyl]phenol], the IC50 on flt-3 and on c-Kit was 500 to 5000 nM each time.
